Patent US20260207585A1, “METHODS AND COMPOSITIONS FOR THE TREATMENT OF PARKINSON'S DISEASE, HUNTINGTON'S DISEASE, AMYOTROPHIC LATERAL SCLEROSIS, AND LEARNING DISORDERS” (Cedars-Sinai Medical Center, priority 2022, published 2026)
Where two headings read alike, the source gives them in different places.

Key:
SUV39H2 = SUV39H2 (Homo sapiens, UniProt Q9H5I1); assay: Methyltransferase inhibition panel: SUV39H2; format: biochemical
Experimental: (§1) The ability of ETP69 to inhibit methyltransferases was tested.

DNMT3b = DNMT3b (Homo sapiens, UniProt Q9UBC3); assay: Methyltransferase inhibition panel: DNMT3b; format: biochemical
Experimental: as §1

dendritic spines = assay: Golgi-Cox staining of brain, dendritic spine quantification; format: in vivo, mice
From the text: The brain of 18-month old mice was stained with the Golgi-Cox method to detect the cytoarchitecture and morphology of neurons. FIG. 1A depicts representative images of the cingulate cortex (cc) of mice administered DMSO or ETP69. FIG. 1B depicts a representative hippocampus. FIG. 1C depicts a representative neuron from a DMSO treated and ETP69 treated hippocampus. FIG. 1D is a schematic of the quantification of neuronal spines.
The brains were stained with the Golgi-Cox method to detect the cytoarchitecture and morphology of neurons. Representative images are shown of mice treated with DMSO (FIG. 10A-10C) and ETP69 (FIG. 10D-10F). The number of dendritic spines are quantified. […] Further, ETP69 administration reduced epigenetic H3K9me3 repression mark in cell-specific manners. H3K9 expression was reduced in neurons (FIGS. 11A-11B), astrocytes (FIGS. 11C-11D), and microglia macrophages (FIGS. 11E-11F).
Loss of synapses and dendritic spine abnormalities are associated with cognitive decline. To analyze these features in old mice administered ETP69, Golgi-Cox neuronal staining and synaptic marker staining was performed in cerebral cortices and hippocampi. Dendritic spines were classified as thin (filopodia-like and long-thin), stubby, or mushroom spines according to their size and shape, and quantified the spine density from high-magnification photographs.

NSD2 (E1099K) = biological target: T1, NSD2 (E1099K) (Homo sapiens, UniProt O96028, E1099K); assay: Methyltransferase inhibition panel: NSD2 (E1099K); format: biochemical
T1 sequence (O96028 1-1365 E1099K): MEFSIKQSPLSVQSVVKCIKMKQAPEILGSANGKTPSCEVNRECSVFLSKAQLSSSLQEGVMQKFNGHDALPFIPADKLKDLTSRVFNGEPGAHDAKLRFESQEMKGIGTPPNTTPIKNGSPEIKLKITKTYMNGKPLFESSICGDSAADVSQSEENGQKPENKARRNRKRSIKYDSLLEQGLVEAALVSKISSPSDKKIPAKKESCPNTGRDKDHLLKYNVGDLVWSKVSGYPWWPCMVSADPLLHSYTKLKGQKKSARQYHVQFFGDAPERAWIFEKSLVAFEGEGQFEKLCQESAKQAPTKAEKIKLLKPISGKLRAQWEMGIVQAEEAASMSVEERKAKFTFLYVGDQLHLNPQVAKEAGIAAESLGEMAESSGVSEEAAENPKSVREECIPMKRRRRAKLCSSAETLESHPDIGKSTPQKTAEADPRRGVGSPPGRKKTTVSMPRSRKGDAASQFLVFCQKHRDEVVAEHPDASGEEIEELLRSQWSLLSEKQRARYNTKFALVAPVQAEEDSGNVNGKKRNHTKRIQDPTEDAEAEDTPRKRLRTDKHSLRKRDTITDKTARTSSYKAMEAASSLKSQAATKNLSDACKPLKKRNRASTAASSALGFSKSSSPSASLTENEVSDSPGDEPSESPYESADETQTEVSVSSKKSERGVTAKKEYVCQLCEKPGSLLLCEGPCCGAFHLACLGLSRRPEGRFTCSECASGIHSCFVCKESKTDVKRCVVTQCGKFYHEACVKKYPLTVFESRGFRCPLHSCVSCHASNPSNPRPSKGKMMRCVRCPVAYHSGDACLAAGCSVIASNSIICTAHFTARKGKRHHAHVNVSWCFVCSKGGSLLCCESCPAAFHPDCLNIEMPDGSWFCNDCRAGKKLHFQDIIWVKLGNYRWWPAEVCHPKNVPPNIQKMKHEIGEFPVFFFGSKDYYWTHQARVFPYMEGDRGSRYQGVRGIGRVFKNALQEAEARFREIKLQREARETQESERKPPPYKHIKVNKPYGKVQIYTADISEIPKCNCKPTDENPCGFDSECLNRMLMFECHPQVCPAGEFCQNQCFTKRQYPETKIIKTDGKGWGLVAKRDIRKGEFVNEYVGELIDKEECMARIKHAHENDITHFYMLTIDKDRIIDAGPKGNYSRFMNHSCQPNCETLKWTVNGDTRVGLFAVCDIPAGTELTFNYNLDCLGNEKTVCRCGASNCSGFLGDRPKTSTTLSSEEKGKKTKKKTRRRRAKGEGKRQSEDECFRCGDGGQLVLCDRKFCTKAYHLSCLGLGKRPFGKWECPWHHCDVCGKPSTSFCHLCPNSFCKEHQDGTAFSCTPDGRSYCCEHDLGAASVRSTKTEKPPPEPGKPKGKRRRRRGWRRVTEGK
Experimental: as §1

EZH2(Y641F) Complex = EZH2(Y641F) Complex (Homo sapiens, UniProt Q15910, Y641F); assay: Methyltransferase inhibition panel: EZH2(Y641F) Complex; format: biochemical; details: NT1721 20 μM; substrate Core Histone 0.05 mg/mL
Sequence of EZH2(Y641F) Complex (Q15910 whole entry Y641F): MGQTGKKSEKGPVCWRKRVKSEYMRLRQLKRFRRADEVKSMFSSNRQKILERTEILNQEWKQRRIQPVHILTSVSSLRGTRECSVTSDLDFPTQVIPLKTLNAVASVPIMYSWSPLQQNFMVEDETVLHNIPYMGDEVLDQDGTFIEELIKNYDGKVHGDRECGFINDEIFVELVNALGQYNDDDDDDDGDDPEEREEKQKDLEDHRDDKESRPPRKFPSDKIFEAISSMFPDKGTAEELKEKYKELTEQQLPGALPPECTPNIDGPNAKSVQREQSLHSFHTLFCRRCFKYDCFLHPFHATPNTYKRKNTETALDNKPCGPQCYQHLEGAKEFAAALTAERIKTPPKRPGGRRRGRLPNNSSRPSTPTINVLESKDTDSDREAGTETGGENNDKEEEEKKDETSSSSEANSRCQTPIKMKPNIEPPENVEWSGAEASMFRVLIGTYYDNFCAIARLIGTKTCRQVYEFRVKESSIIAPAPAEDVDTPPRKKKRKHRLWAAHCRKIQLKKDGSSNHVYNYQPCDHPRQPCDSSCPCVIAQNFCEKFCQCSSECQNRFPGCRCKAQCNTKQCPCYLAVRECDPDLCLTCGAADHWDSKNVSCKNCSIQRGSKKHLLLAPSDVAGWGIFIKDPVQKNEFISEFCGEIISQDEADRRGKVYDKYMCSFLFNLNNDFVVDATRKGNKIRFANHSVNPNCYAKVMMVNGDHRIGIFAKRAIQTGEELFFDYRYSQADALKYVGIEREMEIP
Sequence of EZH2(Y641F) Complex (O75530 whole entry partner): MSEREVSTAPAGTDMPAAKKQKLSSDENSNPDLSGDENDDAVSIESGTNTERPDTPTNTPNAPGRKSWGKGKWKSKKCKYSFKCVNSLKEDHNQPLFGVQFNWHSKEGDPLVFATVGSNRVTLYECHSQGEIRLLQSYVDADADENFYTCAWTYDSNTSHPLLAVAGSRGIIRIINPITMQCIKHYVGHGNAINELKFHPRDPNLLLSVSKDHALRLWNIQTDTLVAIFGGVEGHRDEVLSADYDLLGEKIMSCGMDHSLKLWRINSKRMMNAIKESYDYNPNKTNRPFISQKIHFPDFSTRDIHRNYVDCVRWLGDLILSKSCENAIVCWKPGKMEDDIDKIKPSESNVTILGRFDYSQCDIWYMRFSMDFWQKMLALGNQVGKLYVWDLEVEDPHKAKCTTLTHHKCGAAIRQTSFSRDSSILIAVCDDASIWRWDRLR
Sequence of EZH2(Y641F) Complex (Q15022 whole entry partner): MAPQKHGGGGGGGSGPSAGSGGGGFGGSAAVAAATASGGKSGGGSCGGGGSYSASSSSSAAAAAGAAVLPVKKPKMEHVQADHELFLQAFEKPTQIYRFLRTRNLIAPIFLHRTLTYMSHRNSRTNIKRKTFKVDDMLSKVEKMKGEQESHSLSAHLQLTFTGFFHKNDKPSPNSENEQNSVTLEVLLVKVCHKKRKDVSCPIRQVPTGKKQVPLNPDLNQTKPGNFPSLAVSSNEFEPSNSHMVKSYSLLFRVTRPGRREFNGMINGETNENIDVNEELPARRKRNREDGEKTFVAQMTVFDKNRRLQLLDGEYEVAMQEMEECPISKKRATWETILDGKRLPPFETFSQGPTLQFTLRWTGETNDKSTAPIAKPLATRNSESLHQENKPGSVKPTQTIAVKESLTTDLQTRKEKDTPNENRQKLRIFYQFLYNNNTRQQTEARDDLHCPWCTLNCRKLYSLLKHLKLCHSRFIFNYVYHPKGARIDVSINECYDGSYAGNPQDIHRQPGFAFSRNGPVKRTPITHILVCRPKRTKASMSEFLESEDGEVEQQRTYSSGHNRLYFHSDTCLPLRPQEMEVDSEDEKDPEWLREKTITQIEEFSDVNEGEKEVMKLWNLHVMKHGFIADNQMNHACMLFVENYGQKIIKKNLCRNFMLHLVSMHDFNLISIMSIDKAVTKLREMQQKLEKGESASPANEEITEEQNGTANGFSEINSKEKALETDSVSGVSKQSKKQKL
Sequence of EZH2(Y641F) Complex (Q09028 whole entry partner): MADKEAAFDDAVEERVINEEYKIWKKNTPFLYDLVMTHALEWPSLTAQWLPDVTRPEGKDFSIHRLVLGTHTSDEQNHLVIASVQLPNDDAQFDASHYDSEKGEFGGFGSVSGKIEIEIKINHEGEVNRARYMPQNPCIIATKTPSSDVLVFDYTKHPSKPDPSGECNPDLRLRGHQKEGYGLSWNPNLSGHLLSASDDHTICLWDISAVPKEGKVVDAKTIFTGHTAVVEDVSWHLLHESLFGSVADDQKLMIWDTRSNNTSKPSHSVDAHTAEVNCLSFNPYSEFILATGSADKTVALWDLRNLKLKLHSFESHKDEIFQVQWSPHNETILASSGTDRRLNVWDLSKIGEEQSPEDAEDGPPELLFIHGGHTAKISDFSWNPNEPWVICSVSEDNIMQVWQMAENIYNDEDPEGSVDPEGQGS
Sequence of EZH2(Y641F) Complex (Q6ZN18 whole entry partner): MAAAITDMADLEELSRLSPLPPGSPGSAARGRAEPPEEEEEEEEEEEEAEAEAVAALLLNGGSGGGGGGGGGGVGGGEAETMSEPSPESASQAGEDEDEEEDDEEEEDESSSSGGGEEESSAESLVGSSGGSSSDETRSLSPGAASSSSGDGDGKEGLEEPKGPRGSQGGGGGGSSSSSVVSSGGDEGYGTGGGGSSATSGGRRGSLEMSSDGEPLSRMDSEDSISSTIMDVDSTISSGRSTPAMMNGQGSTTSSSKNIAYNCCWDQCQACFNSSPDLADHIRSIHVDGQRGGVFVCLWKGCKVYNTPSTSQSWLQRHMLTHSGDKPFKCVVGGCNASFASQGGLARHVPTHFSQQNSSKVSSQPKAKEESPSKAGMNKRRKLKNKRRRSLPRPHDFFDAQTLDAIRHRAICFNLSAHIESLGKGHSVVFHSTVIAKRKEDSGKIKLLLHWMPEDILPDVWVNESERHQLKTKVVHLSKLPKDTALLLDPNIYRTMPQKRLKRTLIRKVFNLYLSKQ
Experimental: as §1

PSD95 = PSD95 irradiance in brain; design: species or system mice; details: mouse, in vivo
SUV39H1 = biological target: T2, SUV39H1 (Homo sapiens, UniProt O43463); assay: Methyltransferase inhibition panel: SUV39H1; format: biochemical
T2 sequence (O43463 1-412): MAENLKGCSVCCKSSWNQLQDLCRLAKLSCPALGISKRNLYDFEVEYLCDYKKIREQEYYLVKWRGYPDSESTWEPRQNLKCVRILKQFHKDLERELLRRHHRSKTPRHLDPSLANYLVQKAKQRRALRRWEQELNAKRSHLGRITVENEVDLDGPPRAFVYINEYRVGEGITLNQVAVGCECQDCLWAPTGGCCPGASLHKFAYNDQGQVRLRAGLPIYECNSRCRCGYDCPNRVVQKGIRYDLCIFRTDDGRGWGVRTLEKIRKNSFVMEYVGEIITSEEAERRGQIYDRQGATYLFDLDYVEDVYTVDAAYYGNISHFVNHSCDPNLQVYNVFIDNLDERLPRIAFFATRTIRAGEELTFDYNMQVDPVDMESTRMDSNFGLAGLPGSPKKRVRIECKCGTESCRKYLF
Experimental: as §1

[1] = read-out: Enzyme % Activity (relative to DMSO controls) Data 1
[2] = read-out: Enzyme % Activity (relative to DMSO controls) Data 2
[3] = 18-month old mice, cingulate cortex (cc) and hippocampus, vs DMSO
[4] = old (18-month-old) mice, 10 mg/kg i.p.

Sequence of SUV39H2 (Q9H5I1 whole entry): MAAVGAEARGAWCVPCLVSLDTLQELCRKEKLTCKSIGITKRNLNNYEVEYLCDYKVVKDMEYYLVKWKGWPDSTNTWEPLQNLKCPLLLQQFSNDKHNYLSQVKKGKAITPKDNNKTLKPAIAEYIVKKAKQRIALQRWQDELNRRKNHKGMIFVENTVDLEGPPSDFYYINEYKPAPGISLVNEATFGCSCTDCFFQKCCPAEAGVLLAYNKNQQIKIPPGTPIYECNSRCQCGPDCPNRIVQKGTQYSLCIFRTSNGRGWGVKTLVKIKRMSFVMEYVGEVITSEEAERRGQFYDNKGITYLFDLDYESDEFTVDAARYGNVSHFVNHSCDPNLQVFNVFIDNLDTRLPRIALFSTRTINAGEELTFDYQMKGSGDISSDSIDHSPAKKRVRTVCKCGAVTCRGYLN

`CN1C(=O)[C@@]23C[C@](C)(C#N)[C@H](c4ccc5c(c4)OCO5)N2C(=O)[C@]1(C)SS3` (racemic) [ETP69, Rac-(3S,6S,7S,8aS)-6-(benzo[d][1,3]dioxol-5-yl)-2,3,7-trimethyl-1,4-dioxohexahydro-6H-3,8a-epidithiopyrrolo[1,2-a]pyrazine-7-carbonitrile] was tested. Which remaining activity at 20 µM (SUV39H2; [1]) did it give?
Its remaining activity at 20 µM is 4.4%.

And the remaining activity at 20 µM (SUV39H2; [2])?
The remaining activity at 20 µM was 4.4%.

What about the “inhibition relative to DMSO controls” value (SUV39H2; summary of Table 1) of the same molecule?
Its value is “at least 7500”.

What about the remaining activity at 20 µM (DNMT3b; [1]) of the same molecule?
The remaining activity at 20 µM was 84.8%.

What about the remaining activity at 20 µM (DNMT3b; [2]) of the same molecule?
Its remaining activity at 20 µM is 80.9%.

What about the dendritic spines (dendritic spines; [3]) of the same molecule?
Its dendritic spines is “increase”.

And the thin spines (dendritic spines; [3])?
The thin spines was “increase”.

What about the “number of dendritic spines” value (dendritic spines; Example 4 mice, cingulate cortex and hippocampus, vs DMSO) of the same molecule?
The value was “significantly increased”.

And the mushroom-to-total spine ratio (dendritic spines; [4])?
Its mushroom-to-total spine ratio is “lower”.

What about the thin-to-total spine ratio (dendritic spines; [4]) of the same molecule?
The thin-to-total spine ratio was “higher”.

What about the “increase in the number of dendritic spines” value (dendritic spines; old (18-month-old) wildtype and neurodegenerative mice, hippocampus and cerebral cortex, 10 mg/kg i.p., vs DMSO control) of the same molecule?
The value was 1.2 fold.

And the remaining activity at 20 µM (NSD2 (E1099K); [1])?
Its remaining activity at 20 µM is 32.3%.

And the remaining activity at 20 µM (NSD2 (E1099K); [2])?
Its remaining activity at 20 µM is 32.7%.

And the “inhibition relative to DMSO controls” value (NSD2 (E1099K); summary of Table 1)?
The value was “at least 7500”.

What about the “Enzyme % Activity (relative to DMSO controls) Data 1” value (EZH2(Y641F) Complex) of the same molecule?
Its value is 102.54%.

And the “Enzyme % Activity (relative to DMSO controls) Data 2” value (EZH2(Y641F) Complex)?
The value was 102.95%.

What about the “expression of PSD95 irradiance” value (PSD95) of the same molecule?
The value was “increased”.

What about the remaining activity at 20 µM (SUV39H1; [1]) of the same molecule?
Its remaining activity at 20 µM is 2.36%.

What about the remaining activity at 20 µM (SUV39H1; [2]) of the same molecule?
Its remaining activity at 20 µM is 2.53%.

And the “inhibition relative to DMSO controls” value (SUV39H1; summary of Table 1)?
The value was “at least 7500”.
